ChEMBL document CHEMBL5380817, “Discovery of LL-K8-22: A Selective, Durable, and Small-Molecule Degrader of the CDK8-Cyclin C Complex” (J Med Chem, 2023)
The source made the active and inactive calls. The calls are words filed in the database; no cut-off is given here.

What was measured:
[1] = target: T1, CDK8/Cyclin C (Homo sapiens) (UniProt P49336+P24863); assay: Hydrophobic-tagging degradation activity at CDK8/Cyclin C in human MDA-MB-468 cells assessed as protein degradation at 1.1 to 10 uM incubated for 48 hrs by Western blotting analysis; assay type: cell-based; conditions: dose 1.1-10 µM
[2] = target: T1, CDK8/Cyclin C (Homo sapiens); assay: Hydrophobic-tagging degradation activity at CDK8/Cyclin C in human MDA-MB-468 cells assessed as downregulation of STAT1 phosphorylation at Ser727 residue at 4 uM incubated for 24 hrs followed by compound washout and measured after 24 hrs by Western blotting analysis; assay type: cell-based
MDA-MB-468 [3] = assay: Antiproliferative activity against human MDA-MB-468 cells assessed as reduction in cell viability incubated for 4 days by Celltiter glo luminescent assay; assay type: functional, cell-based; conditions: time 4.0 day
HCT-116 = assay: Antiproliferative activity against human HCT-116 cells assessed as inhibition of cell proliferation incubated for 4 days by Celltiter glo luminescent assay; assay type: functional, cell-based; conditions: HCT-116, 96 h
[4] = target: T1, CDK8/Cyclin C (Homo sapiens); assay: Hydrophobic-tagging degradation activity at CDK8/Cyclin C in human MDA-MB-468 cells assessed as downregulation of C-terminal RNA polymerase II phosphorylation at serine 5 at 2 to 8 uM incubated for 24 hrs by Western blotting analysis; assay type: cell-based; conditions: dose 2-8 µM
[5] = target: T1, CDK8/Cyclin C (Homo sapiens); assay: Hydrophobic-tagging degradation activity at CDK8/Cyclin C in human MDA-MB-468 cells assessed as effect on mRNA expression level at 1.1 to 10 uM by […] analysis; assay type: cell-based; conditions: dose 1.1-10 µM
[6] = target: T1, CDK8/Cyclin C (Homo sapiens); assay: Hydrophobic-tagging degradation activity at CDK8/Cyclin C in human MDA-MB-468 cells assessed as downregulation of Rb phosphorylation at 2 to 8 uM incubated for 24 hrs by Western blotting analysis; assay type: cell-based; conditions: dose 2-8 µM
MDA-MB-468 [7] = assay: Antiproliferative activity against human MDA-MB-468 cells assessed as reduction in cell growth at 5 to 20 uM measured upto 5 days by Celltiter glo luminescent assay; assay type: functional, cell-based; conditions: dose 5-20 µM, time <= 5.0 day
[8] = target: Cyclin-dependent kinase 2 (Homo sapiens) (UniProt P24941); assay: PROTAC activity at CDK2 in human MDA-MB-468 cells assessed as degradation of CDK2 at 0.625 to 10 uM incubated for 24 hrs by Western blotting analysis; assay type: cell-based; conditions: dose 0.625-10 µM
[9] = target: T1, CDK8/Cyclin C (Homo sapiens); assay: Hydrophobic-tagging degradation activity at CDK8/Cyclin C in human MDA-MB-231 cells assessed as protein degradation at 1.5 to 30 uM incubated for 48 hrs by Western blotting analysis; assay type: cell-based; conditions: dose 1.5-30 µM
[10] = target: T2, Cyclin-dependent kinase 8 (Homo sapiens, UniProt P49336); assay: Hydrophobic-tagging degradation activity at CDK8 in human MDA-MB-468 cells assessed as degradation of CDK8 protein at 5 uM incubated for 12 hrs by DIA-based proteomic analysis; assay type: cell-based
[11] = target: T1, CDK8/Cyclin C (Homo sapiens); assay: Hydrophobic-tagging degradation activity at CDK8/Cyclin C in human MDA-MB-468 cells assessed as protein degradation at 1.1 to 10 uM incubated for 24 hrs in presence of MG132 by Western blotting analysis; assay type: cell-based; conditions: dose 1.1-10 µM
[12] = target: Cyclin-dependent kinase 5 (Homo sapiens) (UniProt Q00535); assay: PROTAC activity at CDK5 in human MDA-MB-468 cells assessed as degradation of CDK5 at 0.625 to 10 uM incubated for 24 hrs by Western blotting analysis; assay type: cell-based; conditions: dose 0.625-10 µM
[13] = target: T1, CDK8/Cyclin C (Homo sapiens); assay: Hydrophobic-tagging degradation activity at CDK8/Cyclin C in human MDA-MB-468 cells assessed as downregulation of RET gene expression level at 4 uM incubated for 24 hrs by qPT-PCR analysis; assay type: cell-based
[14] = target: T1, CDK8/Cyclin C (Homo sapiens); assay: Hydrophobic-tagging degradation activity at CDK8/Cyclin C in human MDA-MB-468 cells assessed as protein degradation at 10 uM incubated for 2 to 20 hrs in presence of cycloheximide by Western blotting analysis; assay type: cell-based; conditions: time 2-20 hrs, TDE = time-dependent effect
[15] = target: T1, CDK8/Cyclin C (Homo sapiens); assay: Hydrophobic-tagging degradation activity at CDK8/Cyclin C in human MDA-MB-468 cells assessed as downregulation of STAT1 phosphorylation at Ser727 residue at 2 to 8 uM incubated for 24 hrs by Western blotting analysis; assay type: cell-based; conditions: dose 2-8 µM
[16] = target: T1, CDK8/Cyclin C (Homo sapiens); assay: Hydrophobic-tagging degradation activity at CDK8/Cyclin C in human MDA-MB-468 cells assessed as downregulation of TERT gene expression level at 4 uM incubated for 24 hrs by qPT-PCR analysis; assay type: cell-based
[17] = target: T1, CDK8/Cyclin C (Homo sapiens); assay: Hydrophobic-tagging degradation activity at CDK8/Cyclin C in human MDA-MB-468 cells assessed as downregulation of E2F gene expression level at 4 uM incubated for 24 hrs by qPT-PCR analysis; assay type: cell-based
[18] = target: G2/mitotic-specific cyclin-B1 (Homo sapiens) (UniProt P14635); assay: PROTAC activity at Cyclin B1 in human MDA-MB-468 cells assessed as degradation of Cyclin B1 at 0.625 to 10 uM incubated for 24 hrs by Western blotting analysis; assay type: cell-based; conditions: dose 0.625-10 µM
[19] = target: T1, CDK8/Cyclin C (Homo sapiens); assay: Hydrophobic-tagging degradation activity at CDK8/Cyclin C in human MDA-MB-468 cells assessed as protein degradation at 0.38 to 12 uM incubated for 48 hrs by Western blotting analysis; assay type: cell-based; conditions: dose 0.38-12 µM
[20] = target: Cyclin-dependent kinase 19 (Homo sapiens) (UniProt Q9BWU1); assay: Hydrophobic-tagging degradation activity at CDK19 in human MDA-MB-468 cells assessed as degradation of CDK19 protein at 5 uM incubated for 12 hrs by DIA-based proteomic analysis; assay type: cell-based
[21] = target: T1, CDK8/Cyclin C (Homo sapiens); assay: Hydrophobic-tagging degradation activity at CDK8/Cyclin C in human MDA-MB-468 cells assessed as protein degradation at 5 uM incubated for 2 to 72 hrs by Western blotting analysis; assay type: cell-based; conditions: time 2-72 hrs, TDE = time-dependent effect
[22] = target: G1/S-specific cyclin-E1 (Homo sapiens) (UniProt P24864); assay: PROTAC activity at Cyclin E1 in human MDA-MB-468 cells assessed as degradation of Cyclin E1 at 0.625 to 10 uM incubated for 24 hrs by Western blotting analysis; assay type: cell-based; conditions: dose 0.625-10 µM
[23] = target: T2, Cyclin-dependent kinase 8; assay: Hydrophobic-tagging degradation activity at CDK8 in human MDA-MB-468 cells assessed as downregulation of RAP2C protein expression at 5 uM incubated for 12 hrs by DIA-based proteomic analysis; assay type: cell-based
[24] = target: Cyclin-dependent kinase 19 (Homo sapiens) (UniProt Q9BWU1); assay: Hydrophobic-tagging degradation activity at CDK19 in human MDA-MB-468 cells assessed as degradation of CDK19 at 0.625 to 10 uM incubated for 24 hrs by Western blotting analysis; assay type: cell-based; conditions: dose 0.625-10 µM
[25] = target: Cyclin-dependent kinase 6 (Homo sapiens) (UniProt Q00534); assay: PROTAC activity at CDK6 in human MDA-MB-468 cells assessed as degradation of CDK6 at 0.625 to 10 uM incubated for 24 hrs by Western blotting analysis; assay type: cell-based; conditions: dose 0.625-10 µM
MDA-MB-468 [26] = assay: Antiproliferative activity against human MDA-MB-468 cells assessed as inhibition of cell proliferation incubated for 4 days by Celltiter glo luminescent assay; assay type: functional, cell-based; conditions: MDA-MB-468, 96 h

T2 sequence (P49336 whole entry): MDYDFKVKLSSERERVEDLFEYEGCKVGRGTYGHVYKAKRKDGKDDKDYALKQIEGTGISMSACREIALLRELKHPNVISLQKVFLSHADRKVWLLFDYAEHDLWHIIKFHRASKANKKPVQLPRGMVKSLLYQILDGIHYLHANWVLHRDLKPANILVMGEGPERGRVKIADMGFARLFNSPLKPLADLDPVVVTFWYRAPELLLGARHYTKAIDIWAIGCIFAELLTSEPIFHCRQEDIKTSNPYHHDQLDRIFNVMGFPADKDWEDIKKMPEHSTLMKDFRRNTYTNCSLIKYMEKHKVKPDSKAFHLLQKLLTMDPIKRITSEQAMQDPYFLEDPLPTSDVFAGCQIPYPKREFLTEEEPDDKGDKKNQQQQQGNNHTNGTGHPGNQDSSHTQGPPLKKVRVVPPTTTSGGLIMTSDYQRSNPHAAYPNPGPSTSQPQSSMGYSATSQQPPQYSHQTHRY
Cyclin-dependent kinase 19 (Homo sapiens), sequence (Q9BWU1 whole entry): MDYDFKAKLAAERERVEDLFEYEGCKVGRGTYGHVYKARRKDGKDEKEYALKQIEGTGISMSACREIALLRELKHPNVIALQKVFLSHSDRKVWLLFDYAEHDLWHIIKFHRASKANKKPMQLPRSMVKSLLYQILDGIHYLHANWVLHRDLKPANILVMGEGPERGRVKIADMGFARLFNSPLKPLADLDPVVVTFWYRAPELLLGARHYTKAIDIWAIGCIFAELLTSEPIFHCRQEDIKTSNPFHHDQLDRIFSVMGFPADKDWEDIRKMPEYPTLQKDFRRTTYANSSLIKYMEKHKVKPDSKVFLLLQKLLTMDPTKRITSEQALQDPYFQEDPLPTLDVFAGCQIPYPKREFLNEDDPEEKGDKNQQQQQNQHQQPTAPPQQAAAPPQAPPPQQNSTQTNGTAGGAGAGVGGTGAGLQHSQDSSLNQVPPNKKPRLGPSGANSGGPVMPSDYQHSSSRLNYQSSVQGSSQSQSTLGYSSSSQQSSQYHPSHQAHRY
G1/S-specific cyclin-E1 (Homo sapiens), sequence (P24864 whole entry): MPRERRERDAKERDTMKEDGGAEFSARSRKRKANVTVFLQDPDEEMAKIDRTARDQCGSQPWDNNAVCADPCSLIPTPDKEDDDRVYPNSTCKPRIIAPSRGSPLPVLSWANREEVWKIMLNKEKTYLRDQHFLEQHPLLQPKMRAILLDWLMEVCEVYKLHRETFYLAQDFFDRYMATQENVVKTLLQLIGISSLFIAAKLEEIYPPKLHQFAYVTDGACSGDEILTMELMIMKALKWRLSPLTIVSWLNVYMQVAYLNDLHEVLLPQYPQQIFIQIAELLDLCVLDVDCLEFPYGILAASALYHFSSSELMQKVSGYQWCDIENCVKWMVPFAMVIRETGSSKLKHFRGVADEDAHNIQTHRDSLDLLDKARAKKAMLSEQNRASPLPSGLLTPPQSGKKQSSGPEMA
Cyclin-dependent kinase 6 (Homo sapiens), sequence (Q00534 whole entry): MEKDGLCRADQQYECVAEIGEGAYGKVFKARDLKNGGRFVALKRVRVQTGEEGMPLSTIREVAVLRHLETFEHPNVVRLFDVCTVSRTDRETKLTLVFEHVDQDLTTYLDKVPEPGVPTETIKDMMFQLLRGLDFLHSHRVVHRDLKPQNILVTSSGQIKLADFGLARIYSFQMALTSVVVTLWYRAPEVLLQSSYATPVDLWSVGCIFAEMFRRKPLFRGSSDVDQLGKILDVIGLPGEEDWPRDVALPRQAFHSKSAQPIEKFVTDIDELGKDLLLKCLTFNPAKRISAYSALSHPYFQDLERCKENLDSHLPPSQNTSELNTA
G2/mitotic-specific cyclin-B1 (Homo sapiens), sequence (P14635 whole entry): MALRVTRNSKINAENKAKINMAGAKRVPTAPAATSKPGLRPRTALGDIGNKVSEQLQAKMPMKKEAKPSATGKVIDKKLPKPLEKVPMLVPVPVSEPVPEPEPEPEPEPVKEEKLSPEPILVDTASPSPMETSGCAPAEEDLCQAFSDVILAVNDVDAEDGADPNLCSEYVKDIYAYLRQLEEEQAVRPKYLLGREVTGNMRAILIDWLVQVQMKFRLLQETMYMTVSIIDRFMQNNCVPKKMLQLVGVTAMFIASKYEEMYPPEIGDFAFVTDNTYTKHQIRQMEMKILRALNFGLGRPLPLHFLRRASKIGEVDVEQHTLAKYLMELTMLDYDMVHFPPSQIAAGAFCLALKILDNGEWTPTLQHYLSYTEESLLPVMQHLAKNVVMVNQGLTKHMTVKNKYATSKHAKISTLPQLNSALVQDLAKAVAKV
Cyclin-dependent kinase 5 (Homo sapiens), sequence (Q00535 whole entry, looked up): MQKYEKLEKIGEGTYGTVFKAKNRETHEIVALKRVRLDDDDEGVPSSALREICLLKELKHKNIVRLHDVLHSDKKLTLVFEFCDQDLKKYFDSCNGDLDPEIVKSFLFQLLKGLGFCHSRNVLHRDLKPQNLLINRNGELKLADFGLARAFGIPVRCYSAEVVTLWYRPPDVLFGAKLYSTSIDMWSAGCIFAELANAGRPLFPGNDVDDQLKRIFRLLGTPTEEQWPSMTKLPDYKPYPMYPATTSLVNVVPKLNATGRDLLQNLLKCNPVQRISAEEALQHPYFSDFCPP

**Q.** Which results are given for `O=C(Cn1cc(-c2ccc(-c3cncc4ccccc34)cc2)cn1)N1CCN(CCCC23CC4CC(CC(C4)C2)C3)CC1`?
**A.** Activity [1]: Active; inhibition [2]: 70%; Activity (MDA-MB-468 [3]): Active; IC50 (HCT-116): 5.87 µM; Activity [4]: Dose-Dependent Effect; Activity [5]: inactive; Activity [6]: Active; Activity (MDA-MB-468 [7]): Active; Activity [8]: inactive; Activity [9]: Active; Activity [10]: Active; Activity [11]: inactive; Activity [12]: inactive; Activity [13]: Active; Activity [14]: Tde; Activity [15]: Active; Activity [16]: Active; Activity [17]: Active; Activity [18]: inactive; Activity [19]: Dose-Dependent Effect; Activity [20]: inactive; Activity [21]: Tde; Activity [22]: inactive; Activity [23]: Active; Activity [24]: inactive; Activity [25]: inactive; IC50 (MDA-MB-468 [26]): 5.73 µM
